From patent US9938261B2, “Heterocyclic compounds and methods of use thereof” (AMBIT BIOSCIENCES CORPORATION, priority 2011, dated 2018)
pIC50, pKd: −log10 of the molar value. Where two headings read alike, the source gives them in different places.

Legend:
CSF1R = CSF1R (Homo sapiens, UniProt P07333); experiment: HEK293 CSF1R phosphorylation MSD assay; type: cell-based; set-up: expressed in transfected cells; host or cells: HEK293; settings: read-out: HEK293 pCSF1R M-CSF MSD:IC50
Method in brief: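 Ligand-induced CSF1R autophosphorylation was measured by MSD sandwich assay: CSF1R-FKBP from lysates captured via FK506, anti-phosphotyrosine readout. Cells were exposed to compound for 2 h (9-point, half-log, 0.5% DMSO) before 5 min 50 ng/mL M-CSF. Reported IC50 is the mean of duplicate-plate IC50s relative to DMSO control.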

PDGFRβ = molecular target: T1, PDGFRβ (Homo sapiens, UniProt P09619); experiment: Competition binding assay, PDGFRβ Kd
T1 construct: made in house
T1 sequence (P09619 33-1106): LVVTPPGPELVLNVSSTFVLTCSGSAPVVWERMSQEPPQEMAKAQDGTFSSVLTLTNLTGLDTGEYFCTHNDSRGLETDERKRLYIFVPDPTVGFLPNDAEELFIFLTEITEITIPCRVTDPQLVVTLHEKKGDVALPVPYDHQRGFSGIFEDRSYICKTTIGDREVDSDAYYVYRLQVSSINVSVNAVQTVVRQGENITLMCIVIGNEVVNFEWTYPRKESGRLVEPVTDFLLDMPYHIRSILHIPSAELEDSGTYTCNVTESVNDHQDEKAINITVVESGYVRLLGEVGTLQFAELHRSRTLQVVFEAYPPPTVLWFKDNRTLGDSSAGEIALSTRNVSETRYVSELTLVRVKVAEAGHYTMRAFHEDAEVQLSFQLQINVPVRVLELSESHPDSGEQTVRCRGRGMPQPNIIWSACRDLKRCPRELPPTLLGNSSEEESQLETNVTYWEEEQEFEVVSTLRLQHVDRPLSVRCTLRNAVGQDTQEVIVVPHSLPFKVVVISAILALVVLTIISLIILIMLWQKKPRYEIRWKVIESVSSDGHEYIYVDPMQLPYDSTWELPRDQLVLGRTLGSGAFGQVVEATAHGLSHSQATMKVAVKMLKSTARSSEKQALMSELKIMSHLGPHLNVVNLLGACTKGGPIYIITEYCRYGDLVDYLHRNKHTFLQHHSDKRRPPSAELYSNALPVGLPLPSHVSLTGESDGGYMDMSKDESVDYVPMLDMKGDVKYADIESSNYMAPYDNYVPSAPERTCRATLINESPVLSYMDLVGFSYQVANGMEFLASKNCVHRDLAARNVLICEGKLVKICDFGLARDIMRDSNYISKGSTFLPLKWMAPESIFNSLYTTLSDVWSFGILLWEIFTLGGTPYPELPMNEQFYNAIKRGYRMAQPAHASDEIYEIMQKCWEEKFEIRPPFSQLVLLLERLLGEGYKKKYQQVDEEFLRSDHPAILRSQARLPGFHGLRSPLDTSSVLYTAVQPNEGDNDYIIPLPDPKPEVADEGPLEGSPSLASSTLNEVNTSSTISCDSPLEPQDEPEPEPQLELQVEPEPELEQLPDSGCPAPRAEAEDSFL
Method in brief: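 Phage-fused or HEK-293/DNA-tagged kinase + ligand-coated streptavidin beads + compound, 1 h RT with shaking. Wash, elute with free ligand 30 min RT, qPCR of eluted kinase. Kd: 11-point 3-fold series.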

M-NFS-60 cells = experiment: M-NFS-60 cell proliferation assay (Alamar Blue); type: cell-based, mouse; settings: Mus musculus, read-out: CSF1R M-NFS-60 CTB:IC50
Method in brief: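 Alamar Blue reduction (3 h; 560/590 nm) measured viability after 72 h, 37 °C treatment with nine half-log compound concentrations at 0.5% DMSO. Cells: M-CSF-dependent (20 ng/mL) murine M-NFS-60 in RPMI plus 10% FBS. IC50s, averaged from duplicates, reflect half-maximal inhibition of proliferation relative to control.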

[1] = HEK293 cells, M-CSF stimulated CSF1R phosphorylation, MSD
[2] = 2 h compound, human M-CSF 50 ng/mL for 5 min
[3] = 72 hours incubation, M-CSF 20 ng/mL

Sequence of CSF1R (P07333 20-972): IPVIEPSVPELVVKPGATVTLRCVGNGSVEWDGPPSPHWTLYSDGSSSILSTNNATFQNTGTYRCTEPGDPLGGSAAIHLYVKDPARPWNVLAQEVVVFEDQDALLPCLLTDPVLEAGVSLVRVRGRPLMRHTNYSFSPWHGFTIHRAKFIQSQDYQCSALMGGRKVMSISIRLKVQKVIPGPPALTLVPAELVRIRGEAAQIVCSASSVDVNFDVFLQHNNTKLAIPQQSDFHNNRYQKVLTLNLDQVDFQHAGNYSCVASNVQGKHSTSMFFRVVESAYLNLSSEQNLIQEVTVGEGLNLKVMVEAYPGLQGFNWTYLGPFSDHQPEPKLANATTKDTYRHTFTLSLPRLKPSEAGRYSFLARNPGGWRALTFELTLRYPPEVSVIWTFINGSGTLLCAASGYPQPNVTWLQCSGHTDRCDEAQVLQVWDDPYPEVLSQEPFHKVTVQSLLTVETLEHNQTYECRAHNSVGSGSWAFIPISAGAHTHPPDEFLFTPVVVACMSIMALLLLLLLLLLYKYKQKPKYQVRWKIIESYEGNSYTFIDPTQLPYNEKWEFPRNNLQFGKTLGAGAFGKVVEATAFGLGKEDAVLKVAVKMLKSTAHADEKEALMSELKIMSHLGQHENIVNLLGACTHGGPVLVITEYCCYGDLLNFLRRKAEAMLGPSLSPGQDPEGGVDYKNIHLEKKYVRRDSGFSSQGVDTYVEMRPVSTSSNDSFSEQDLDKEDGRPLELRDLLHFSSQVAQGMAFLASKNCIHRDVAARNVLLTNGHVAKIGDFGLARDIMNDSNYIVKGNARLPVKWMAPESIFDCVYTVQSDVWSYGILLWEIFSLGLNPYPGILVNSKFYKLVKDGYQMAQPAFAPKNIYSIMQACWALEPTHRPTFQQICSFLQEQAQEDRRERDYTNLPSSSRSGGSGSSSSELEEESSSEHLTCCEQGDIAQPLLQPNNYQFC

Question: O[C@@H]1CCCC[C@H]1Nc1nc2ccc(Cn3cnc4cc(C(F)(F)F)cnc43)cc2s1 [Example 212, (1R,2R)-2-((6-((6-(trifluoromethyl)-3H-imidazo[4,5-b]pyridin-3-yl)methyl)benzo[d]thiazol-2-yl)amino)cyclohexanol] was tested. Which pIC50 (CSF1R; [1]) did it give?
Answer: 6.70 to 7.30

Question: What about the pKd (PDGFRβ; competition binding) of the same molecule?
Answer: ≥ 7.30

Question: And the pIC50 (M-NFS-60 cells; M-NFS-60 cell proliferation)?
Answer: 6.40 to 7.30

Question: With O[C@@H]1CCCC[C@H]1Nc1nc2ccc(Cc3cnc4cc(-n5nccn5)ccn34)cc2s1 [Example 215, (1R,2R)-2-((6-((7-(2H-1,2,3-triazol-2-yl)imidazo[1,2-a]pyridin-3-yl)methyl)benzo[d]thiazol-2-yl)amino)cyclohexanol] as the molecule, how does the pIC50 (CSF1R; [1]) read?
Answer: 6.70 to 7.30

Question: And the pKd (PDGFRβ; competition binding)?
Answer: 5.70 to 6.30

Question: What about the pIC50 (M-NFS-60 cells; M-NFS-60 cell proliferation) of the same molecule?
Answer: 6.40 to 7.30

Question: What does the source list for CC(=O)c1ccn2c(Cc3ccc4nc(N[C@@H]5CCCC[C@H]5O)sc4c3)cnc2c1 [Example 200, 1-(3-((2-(((1R,2R)-2-hydroxycyclohexyl)amino)benzo[d]thiazol-6-yl)methyl)imidazo[1,2-a]pyridin-7-yl)ethanone]?
Answer: pIC50 (CSF1R; [1]): 6.70 to 7.30; pKd (PDGFRβ; competition binding): 6.30 to 7.30; pIC50 (M-NFS-60 cells; M-NFS-60 cell proliferation): 6.40 to 7.30

Question: What does the source list for O[C@@H]1CCCC[C@H]1Nc1nc2ccc(Cn3cnc4cc(-c5cccnc5)cnc43)cc2s1 [Example 40, (1R,2R)-2-((6-((6-(pyridin-3-yl)-3H-imidazo[4,5-b]pyridin-3-yl)methyl)benzo[d]thiazol-2-yl)amino)cyclohexanol]?
Answer: pIC50 (CSF1R; [2]): ≥ 7.30; pKd (PDGFRβ): ≥ 7.30; pIC50 (M-NFS-60 cells; [3]): ≥ 7.30

Question: What does the source list for CS(=O)(=O)c1ccc2ncn(Cc3ccc4nc(N[C@@H]5CCCC[C@H]5O)sc4c3)c2n1 [Example 106, (1R,2R)-2-((6-((5-(methylsulfonyl)-3H-imidazo[4,5-b]pyridin-3-yl)methyl)benzo[d]thiazol-2-yl)amino)cyclohexanol]?
Answer: pIC50 (CSF1R; [1]): < 6.30; pKd (PDGFRβ; competition binding): 5.70 to 6.30; pIC50 (M-NFS-60 cells; M-NFS-60 cell proliferation): < 5.82

Question: With CC(=O)NCc1cnc2c(c1)ncn2Cc1ccc2nc(N[C@@H]3CCCC[C@H]3O)sc2c1 [Example 99, N-((3-((2-(((1R,2R)-2-hydroxycyclohexyl)amino)benzo[d]thiazol-6-yl)methyl)-3H-imidazo[4,5-b]pyridin-6-yl)methyl)acetamide] as the molecule, how does the pIC50 (CSF1R; [2]) read?
Answer: 6.30 to 6.70

Question: What about the pKd (PDGFRβ) of the same molecule?
Answer: 5.70 to 6.30

Question: And the pIC50 (M-NFS-60 cells; [3])?
Answer: < 5.82

Question: What does the source list for O=C1CCCC[C@H]1Nc1nc2ccc(Cn3cnc4cccnc43)cc2s1 [Example 54, (R)-2-((6-((3H-imidazo[4,5-b]pyridin-3-yl)methyl)benzo[d]thiazol-2-yl)amino)cyclohexanone]?
Answer: pIC50 (CSF1R; [2]): 6.70 to 7.30; pKd (PDGFRβ): 6.30 to 7.30; pIC50 (M-NFS-60 cells; [3]): 6.40 to 7.30

Question: Which results are given for O[C@@H]1Cc2ccccc2[C@H]1Nc1nc2ccc(Cn3cnc4cc(Br)cnc43)cc2o1 [Example 62, (1R,2R)-1-((6-((6-bromo-3H-imidazo[4,5-b]pyridin-3-yl)methyl)benzo[d]oxazol-2-yl)amino)-2,3-dihydro-1H-inden-2-ol]?
Answer: pIC50 (CSF1R; [2]): ≥ 7.30; pKd (PDGFRβ): ≥ 7.30; pIC50 (M-NFS-60 cells; [3]): ≥ 7.30

Question: With Fc1cnc2c(c1)ncn2Cc1ccc2nc(N[C@@H]3CCCC[C@H]3Cl)sc2c1 [Example 198, N-((1R,2R)-2-chlorocyclohexyl)-6-((6-fluoro-3H-imidazo[4,5-b]pyridin-3-yl)methyl)benzo[d]thiazol-2-amine] as the molecule, how does the pIC50 (CSF1R; [1]) read?
Answer: 6.30 to 6.70

Question: What about the pKd (PDGFRβ; competition binding) of the same molecule?
Answer: ≥ 7.30

Question: What about the pIC50 (M-NFS-60 cells; M-NFS-60 cell proliferation) of the same molecule?
Answer: 6.40 to 7.30

Question: How did the pIC50 (CSF1R; [2]) turn out when N#Cc1ccc2ncn(Cc3ccc4nc(N[C@@H]5CCCC[C@H]5O)sc4c3)c2n1 [Example 87, 3-((2-(((1R,2R)-2-hydroxycyclohexyl)amino)benzo[d]thiazol-6-yl)methyl)-3H-imidazo[4,5-b]pyridine-5-carbonitrile] was run?
Answer: ≥ 7.30

Question: And the pKd (PDGFRβ)?
Answer: ≥ 7.30

Question: And the pIC50 (M-NFS-60 cells; [3])?
Answer: ≥ 7.30

Question: OCc1cnc2c(c1)ncn2Cc1ccc2nc(N[C@@H]3CCCC[C@H]3O)sc2c1 [Example 84, (1R,2R)-2-((6-((6-(hydroxymethyl)-3H-imidazo[4,5-b]pyridin-3-yl)methyl)benzo[d]thiazol-2-yl)amino)cyclohexanol] was tested. Which pIC50 (CSF1R; [2]) did it give?
Answer: ≥ 7.30

Question: And the pKd (PDGFRβ)?
Answer: 6.30 to 7.30

Question: And the pIC50 (M-NFS-60 cells; [3])?
Answer: 6.40 to 7.30

Question: Which results are given for CSCc1cnc2c(c1)ncn2Cc1ccc2nc(N[C@@H]3CCCC[C@H]3O)sc2c1 [Example 86, (1R,2R)-2-((6-((6-((methylthio)methyl)-3H-imidazo[4,5-b]pyridin-3-yl)methyl)benzo[d]thiazol-2-yl)amino)cyclohexanol]?
Answer: pIC50 (CSF1R; [2]): ≥ 7.30; pKd (PDGFRβ): ≥ 7.30; pIC50 (M-NFS-60 cells; [3]): 6.40 to 7.30
